Test results as given in ChEMBL document CHEMBL5154877, “Novel Sphingosine Kinase 1 Inhibitor Suppresses Growth of Solid Tumor and Inhibits the Lung Metastasis of Triple-Negative Breast Cancer” (J Med Chem, 2022).
Calls of active or inactive are those of the source. The rule behind the calls is not given here.

How the values were obtained:
HT-29 [1] = assay: Induction of cell cycle arrest at G0/G1 phase in human HT-29 cells assessed as reduction in CDK6 expression at 10 to 30 uM incubated for 24 hrs by Western blot analysis; format: functional, cell-based; conditions: dose 10-30 µM
MDA-MB-231 [2] = assay: Antimetastatic activity against human MDA-MB-231 cells xenografted in BALB/c mouse assessed as decrease in plasma S1P levels at 100 mg/kg, ip for 28 days; format: functional, organism-based; conditions: time 28.0 day
MDA-MB-231 [3] = assay: Induction of apoptosis in human MDA-MB-231 cells assessed as necrotic cells at 10 uM incubated for 48 hrs by Annexin V-FITC/PI staining based flow cytometry (reference value: 1.42 %); format: functional
[4] = Clearance in mouse at 2 mg/kg, iv; format: ADME, organism-based; conditions: in vivo
MDA-MB-231 [5] = assay: Induction of apoptosis in human MDA-MB-231 cells assessed as late apoptotic cells at 30 uM incubated for 48 hrs by Annexin V-FITC/PI staining based flow cytometry (reference value: 1.96 %); format: functional
MDA-MB-231 [6] = assay: Antimetastatic activity against human MDA-MB-231 cells […] assessed as upregulation of phosphorylated beta-catenin at 30 uM incubated for 2 to 12 hrs by western blot analysis; format: functional, cell-based; conditions: time 2-12 hrs
HT-29 [7] = assay: Induction of cell cycle arrest in human HT-29 cells assessed as accumulation at G0/G1 phase at 10 uM incubated for 24 hrs by PI staining based flow cytometry; format: functional
[8] = Oral bioavailability in mouse at 20 mg/kg; format: ADME, organism-based; conditions: in vivo
MDA-MB-231 [9] = assay: Induction of apoptosis in human MDA-MB-231 cells assessed as necrotic cells at 30 uM incubated for 48 hrs by Annexin V-FITC/PI staining based flow cytometry (reference value: 1.42 %); format: functional
[10] = Cmax in mouse at 20 mg/kg, po; format: ADME, organism-based; parameters: dose 20 mg/kg, route po; conditions: in vivo
MDA-MB-231 [11] = assay: Induction of apoptosis in human MDA-MB-231 cells assessed as viable cells at 30 uM incubated for 48 hrs by Annexin V-FITC/PI staining based flow cytometry (reference value: 94.3 %); format: functional; conditions: read-out: Activity
MDA-MB-231 [12] = assay: Antimigratory activity against human MDA-MB-231 cells assessed as reduction in cell migration at 40 uM incubated for 8 hrs by crystal violet staining microscopy based transwell migration assay; format: functional
MDA-MB-231 [13] = assay: Induction of apoptosis in human MDA-MB-231 cells assessed as early apoptotic cells at 10 uM incubated for 48 hrs by Annexin V-FITC/PI staining based flow cytometry (reference value: 2.35 %); format: functional
HT-29 [14] = assay: Induction of cell cycle arrest at G1 phase in human HT-29 cells assessed as increase in P21 expression at 30 uM incubated for 24 hrs by Western blot analysis; format: functional, cell-based
[15] = Toxicity in BALB/c mouse xenografted with human HT-29 cells assessed as change in body weight at 50 mg/kg/day, ip for 3 weeks and measured every 3 days; format: organism-based; conditions: in vivo, 504 h
HT-29 [16] = assay: Induction of cell cycle arrest at G0/G1 phase in human HT-29 cells assessed as decrease in p-Rb expression at 10 to 30 uM incubated for 24 hrs by Western blot analysis; format: functional, cell-based; conditions: dose 10-30 µM
[17] = Toxicity in BALB/c mouse xenografted with human MDA-MB-231 cells assessed as change in body weight at 50 mg/kg/day, ip for 3 weeks and measured every 3 days; format: organism-based; conditions: in vivo, 504 h
MDA-MB-231 [18] = assay: Induction of apoptosis in human MDA-MB-231 cells assessed as viable cells at 10 uM incubated for 48 hrs by Annexin V-FITC/PI staining based flow cytometry (reference value: 94.3 %); format: functional; conditions: read-out: Activity
MDA-MB-231 [19] = assay: Antimetastatic activity against human MDA-MB-231 cells […] assessed as downregulation of MMP-9 at 30 uM incubated for 2 to 12 hrs by western blot analysis; format: functional, cell-based; conditions: time 2-12 hrs
MDA-MB-231 [20] = assay: Antimetastatic activity against human MDA-MB-231 cells […] assessed as inhibition of NF-kappaB p65 phosphorylation at 30 uM incubated for 2 to 12 hrs by Western blot analysis; format: functional, cell-based; conditions: time 2-12 hrs
HT-29 [21] = assay: Induction of cell cycle arrest at G0/G1 phase in human HT-29 cells assessed as reduction in cyclinA expression at 10 to 30 uM incubated for 24 hrs by Western blot analysis; format: functional, cell-based; conditions: dose 10-30 µM
[22] = AUClast in mouse at 20 mg/kg, po; format: ADME, organism-based; parameters: time 0 - last, dose 20 mg/kg, route po; conditions: in vivo
MDA-MB-231 [23] = assay: Induction of apoptosis in human MDA-MB-231 cells assessed as late apoptotic cells at 10 uM incubated for 48 hrs by Annexin V-FITC/PI staining based flow cytometry (reference value: 1.96 %); format: functional
HT-29 [24] = assay: Induction of cell cycle arrest at G0/G1 phase in human HT-29 cells assessed as reduction in cyclinE1 expression at 10 to 30 uM incubated for 24 hrs by Western blot analysis; format: functional, cell-based; conditions: dose 10-30 µM
MDA-MB-231 [25] = assay: Antimigratory activity against human MDA-MB-231 cells assessed as inhibition of cell migration in human MDA-MB-231 cells at 40 uM incubated for 15 hrs by wound healing assay; format: functional, cell-based
HT-29 [26] = assay: Induction of cell cycle arrest at G0/G1 phase in human HT-29 cells assessed as reduction in cyclinD1 expression at 10 to 30 uM incubated for 24 hrs by Western blot analysis; format: functional, cell-based; conditions: dose 10-30 µM
MDA-MB-231 [27] = assay: Induction of apoptosis in human MDA-MB-231 cells assessed as early apoptotic cells at 30 uM incubated for 48 hrs by Annexin V-FITC/PI staining based flow cytometry (reference value: 2.35 %); format: functional
[28] = Half life in mouse at 10 mg/kg, ip; format: ADME, organism-based; conditions: in vivo
[29] = Half life in mouse at 2 mg/kg, iv; format: ADME, organism-based; conditions: in vivo
[30] = Toxicity in BALB/c mouse xenografted with human MDA-MB-231 cells assessed as body weight change at 100 mg/kg, ip administrated for 28 days; format: organism-based; conditions: in vivo, 672 h, time 28 day
MDA-MB-231 [31] = assay: Antimetastatic activity against human MDA-MB-231 cells […] assessed as inhibition of FSCN1 phosphorylation at 30 uM incubated for 2 to 12 hrs by western blot analysis; format: functional, cell-based; conditions: time 2-12 hrs
[32] = Tmax in mouse at 20 mg/kg, po; format: ADME, organism-based; conditions: in vivo
[33] = AUClast in mouse at 2 mg/kg, iv; format: ADME, organism-based; parameters: time 0 - last, dose 2 mg/kg, route iv; conditions: in vivo
[34] = Half life in mouse at 20 mg/kg, po; format: ADME, organism-based; conditions: in vivo
HT-29 [35] = assay: Antitumor activity against human HT-29 cells xenografted in BALB/c mouse assessed as tumor growth inhibition at 50 mg/kg/day, ip for 3 weeks and measured every 3 days by caliper method; format: functional, organism-based

## Cc1cc(CS(=O)(=O)c2ccccc2)cc(OCc2ccc(CN3CCC[C@@H]3CO)cc2)c1
HT-29 [1]
  Activity: Active
MDA-MB-231 [2]
  Activity: Active
MDA-MB-231 [3]
  Activity: 2.22%
[4]
  clearance: 207 mL/min/kg
MDA-MB-231 [5]
  Activity: 7.47%
MDA-MB-231 [6]
  Activity: Active
HT-29 [7]
  Activity: Active
[8]
  bioavailability: 1.92%
MDA-MB-231 [9]
  Activity: 1.99%
[10]
  Cmax: 16.8 ng/mL
MDA-MB-231 [11]
  viability at 30 µM: 65.4%
MDA-MB-231 [12]
  Activity: Active
MDA-MB-231 [13]
  Activity: 4.89%
HT-29 [14]
  Activity: Active
[15]
  Activity: Non-Toxic
HT-29 [16]
  Activity: Active
[17]
  Activity: Non-Toxic
MDA-MB-231 [18]
  viability at 10 µM: 85.8%
MDA-MB-231 [19]
  Activity: Active
MDA-MB-231 [20]
  Activity: Active
HT-29 [21]
  Activity: Active
[22]
  AUC(0-t): 32.3 ng·h/mL
MDA-MB-231 [23]
  Activity: 7.11%
HT-29 [24]
  Activity: Active
MDA-MB-231 [25]
  Activity: Active
HT-29 [26]
  Activity: Active
MDA-MB-231 [27]
  Activity: 25.2%
[28]
  half-life: 1.2 h
[29]
  half-life: 1.01 h
[30]
  Activity: Non-Toxic
MDA-MB-231 [31]
  Activity: Active
[32]
  Tmax: 0.25 h
[33]
  AUC(0-t): 168 ng·h/mL
[34]
  half-life: 4.3 h
HT-29 [35]
  Activity: Active
